From US6800761B1, “Form of irbesartan, methods for obtaining said form and pharmaceutical compositions containing same” (Sanofi-Synthelabo, priority 1998, dated 2004)
Where two headings read alike, the source gives them in different places.

Columns and labels:
[1] = for packing density: Hosokawa machine, 180 gravity drops
[2] = as indicated in EP 708 103; cited from earlier work
[3] = for flowability index: Carr method: compressibility, angle of repose, spatula angle, cohesion
Procedure: The flowability index is calculated by the Carr method (R. Carr: Chemical Engineering, Jan. 18, 1965, page 163-168) and takes into account the results of four experimental values: compressibility, angle of repose, spatula angle and cohesion.

[4] = brick habit versus acicular habit

Structure (SMILES)	packing density ([1]; listed as crystals of the acicular form A)	stability and hygroscopicity of the crystals [2]	flowability index ([3]; listed as crystals of acicular habit)	packing density ([1]; listed as irbesartan crystals having the new crystal habit)	increase in the packing density with respect to the acicular habit [1, 4] [%]	flowability index ([3]; listed as crystals of brick habit)	increase in the flowability index with respect to the acicular habit [3, 4] [%]
CCCCC1=NC2(CCCC2)C(=O)N1Cc1ccc(-c2ccccc2-c2nnn[nH]2)cc1 [crystals of irbesartan in acicular form A] [2-n-butyl-4-spirocyclopentane-1-[(2′-(tetrazol-5-yl)biphenyl-4-yl)methyl]-2-imidazolin-5-one, reference compound]	about 0.35 kg/M^3	stable, non-hygroscopic	about 10				
CCCCC1=NC2(CCCC2)C(=O)N1Cc1ccc(-c2ccccc2-c2nnn[nH]2)cc1 [irbesartan crystals in the brick habit, 2-n-butyl-4-spirocyclopentane-1-[(2′-(tetrazol-5-yl)biphenyl-4-yl)methyl]-2-imidazolin-5-one]				about 0.5 kg m^3	50	about 30	50
